Source: US20160310584A1, “FORMULATIONS FOR NEOPLASIA VACCINES” (THE BROAD INSTITUTE INC., priority 2013, published 2016)
Like-named read-outs stand apart in the source and are kept apart here. Where a SMILES comes first, the peptide text is derived from it. Where no end group is shown, it is not given here.

Columns and labels:
Format in all cases: physicochemical
[1] = Peptide solubility evaluation: dissolution in DMSO, dilution in D5W with or without succinate
Protocol: (§1) In a representative procedure, peptides were weighed and corrected for % peptide content, and then dissolved in DMSO to a concentration of 50 mg/mL. The DMSO/Peptide solution was then diluted with 5 mM sodium succinate in D5W to a 2 mg/mL peptide concentration.
Additional peptide solubility conditions were tested. Peptides CS6709, CS6712, CS6720, CS6726, and CS6783 were weighed at approximately 10 mg each. The peptides were then dissolved in approximately 200 μL USP grade DMSO to obtain a 50 mg/mL concentration for each peptide. […] Additional 50 μL increments of DMSO were added to Peptide CS6709 up to 400 μL; for a total of 600 μL of DMSO.
Based on gross weight and peptide content, 15 mg (net weight) or slightly more of each individual peptide are weighed and 100% USP Grade DMSO […] is added to achieve a final peptide concentration of 50 mg/ml.

pH of peptide solutions = assay: pH of peptide solutions
Protocol: as §1

[2] = Dissolution of peptide in D5W without using DMSO; settings: small amount of peptide (<1 mg)
[3] = Freeze/thaw and frozen storage stability (RP-HPLC, pH, visual inspection); settings: −20° C. stability study
Protocol: Two individual peptides were dissolved in DMSO/D5W and placed on stability at two temperatures (−20° C. and −80° C.). These peptides were evaluated (RP-HPLC and pH and visual inspection) for up to 24 weeks. […] Any small changes appear to be due to assay variability as no trends were noted to be evaluated.
A peptide pool (Pool 4) consisting of five peptides was prepared by dissolution in DMSO, dilution with D5W/Succinate (5 mM) to 2 mg/ml and pooling to a final peptide concentration of 400 μg per ml and a final DMSO concentration of 4%. After preparation, peptides were filtered with a 25 mm Pall PES filter (Cat #4612) and dispensed into Nunc Cryo vials (#375418) in one ml aliquots. Samples were analyzed at time zero and at 2 and 4 weeks to date. Additional samples are analyzed at 8 and 24 weeks.

[4] = DMSO/D5W, Table 4, Y/N, diluted to 2 mg/ml, read-out: Solubility In DMSO/D5W
[5] = DMSO/D5W/succinate, Table 4, Y/N, read-out: Solubility in DMSO/D5W/Succinate
[6] = Table 4, Y/N, diluted to 2 mg/ml, read-out: Solubility In DMSO/D5W
[7] = Table 4, symbol X not defined, peptides dissolved at 50 mg/ml in 100% DMSO, read-out: Solubility in DMSO

Row | Compound | solubility [1, 4] [µg/mL] | pH of peptides in DMSO/D5W/5 mM S. Succinate spike (pH of peptide solutions) | pH of peptides in DMSO/D5W/5 mM Succinate and Hiltonol (pH of peptide solutions) | further results
1 | CC[C@H](C)[C@H](NC(=O)[C@H](CS)NC(=O)[C@H](CC(C)C)NC(=O)[C@@H](N)CC(=O)O)C(=O)N[C@@H](CS)C(=O)N1CCC[C@H]1C(=O)N[C@@H](CCCNC(=N)N)C(=O)N[C@@H](CO)C(=O)N[C@@H](Cc1c[nH]cn1)C(=O)N[C@@H](CCCNC(=N)N)C(=O)NCC(=O)N[C@@H](C)C(=O)N[C@@H](Cc1ccccc1)C(=O)N[C@@H](CCC(N)=O)C(=O)N[C@@H](CC(C)C)C(=O)N[C@@H](CC(C)C)C(=O)N1CCC[C@H]1C(=O)N[C@@H](CO)C(=O)N[C@@H](C)C(=O)N[C@@H](CC(C)C)C(=O)N[C@@H](CC(C)C)C(=O)N[C@H](C(=O)N[C@@H](CCCNC(=N)N)C(=O)N[C@H](C(=O)N[C@@H](CC(C)C)C(=O)N[C@@H](CCC(=O)O)C(=O)NCC(=O)N[C@@H](CO)C(=O)N[C@@H](CC(=O)O)C(=O)N[C@@H](CO)C(=O)O)C(C)C)C(C)C [CS6932] (H-DLCICPRSHRGAFQLLPSALLVRVLEGSDS-OH) | > 2000 |  |  | 
2 | H-AESAQRQGPLGGGEQSANEF-OH [CS7417] |  | 6.28 | 6.5 | solubility [1]: > 2000 µg/mL; solubility [1, 5]: > 2000 µg/mL
3 | H-AESAQRQGPNGGGEQSANEF-OH [CS7416] |  | 6.31 | 6.54 | 
4 | H-AHRQGEKQHLLPVFSRLALRLPWRHSVQL-OH [CS6941] |  | 6.49 | 6.78 | 
5 | H-ALSLTPGLRIGPSGLFLVFLAESAVDKGHPNRS-OH [CS7410] |  | 6.46 | 6.88 | 
6 | H-APALGPGAASVASRCGLDPALAPGGSHMLRA-OH [CS6927] | > 2000 |  |  | 
7 | H-DASDFLPDTQLFPHFTELLLPLDPLEGSSV-OH [CS6935] | < 2000 |  |  | 
8 | H-DMAWRRNSRLYWLIKMVEQWQEQHLPSLSS-OH [CS6943] | > 2000 |  |  | 
9 | H-DSAVDKGHPNRSALSLTPGLRIGPSGIPQAGLG-OH [CS6726] | > 2000 |  |  | Dissolution directly in D5W without using DMSO [2]: could be dissolved
10 | H-DSAVDKGHPNRSALSLTPGLRIGPSGLFLVFLA-OH [CS7411] |  | 6.53 | 6.94 | 
11 | H-EDLHLLSVPCPSYKKLPLLIFPSHRRAPLLSA-OH [CS6918] |  |  |  | solubility [1, 6]: > 2000 µg/mL
12 | H-EEGLLPEVFGAGVPLALCPAVPSAAKPHRPRVL-OH [CS6933] | > 2000 |  |  | 
13 | H-EPDQEAVQSSTYKDCNTLHLPTERFSPVR-OH [CS6710] | > 2000 |  |  | 
14 | H-FRLIWRSVKNGKSSREQELSWNCSHQVPSLGA-OH [CS6917] | > 2000 |  |  | 
15 | H-GASRRSSASQGAGSLGLSEEKTLRSGGGP-OH [CS6781] | > 2000 |  |  | 
16 | H-GKSRGQQAQDRARHAAGAAPARPLGALREQ-OH [CS6938] | > 2000 |  |  | 
17 | H-GLLSDGSGLGQITWASAEHLQRPGAGAELA-OH [CS6914] | > 2000 |  |  | 
18 | H-GTKALQLHSIAGRWPRMEPWVVESMSLGVP-OH [CS7415] |  | 6.61 | 6.81 | 
19 | H-GTYLQGTASALSQSQERPPSVNRVPPSSPSSQE-OH [CS6725] | > 2000 |  |  | 
20 | H-IGALNPKRAAFFAEHYESWE-OH [CS7420] |  | 6.38 | 6.56 | solubility [1]: > 2000 µg/mL
21 | H-KKEKAEKLEKERQRHISKPLLGGPFSLTTHTGE-OH [CS6718] | > 2000 |  |  | 
22 | H-KKNITNLSRLVVRPDTDAVY-OH [CS7431] |  | 6.45 | 6.69 | 
23 | H-KLAWRGRISSSGCPSMTSPPSPMFGMTLHT-OH [CS6919] |  | 6.74 | 6.99 | Heterodimer formation (mass spectrometry) [3]: can form a heterodimer
24 | H-KPKKVAGAATPKKSIKRTPKKVKKPATAAGTKK-OH [CS6717] | > 2000 |  |  | 
25 | H-LAASGLHGSAWLVPGEQPVSGPHHGKQPAGV-OH [CS6930] | > 2000 |  |  | 
26 | H-LKDSNSWPPSNKRGFDTEDAHKSNATPVP-OH [CS6712] |  |  |  | Dissolution directly in D5W without using DMSO [2]: could be dissolved
27 | H-LLTDRNTSGTTFTLLGVSDYPELQVP-OH [CS7409] |  | 6.32 | 6.62 | solubility [1]: > 2000 µg/mL; solubility [1, 5]: > 2000 µg/mL

Row | Compound | solubility [1, 4] [µg/mL] | pH of peptides in DMSO/D5W/5 mM S. Succinate spike (pH of peptide solutions) | pH of peptides in DMSO/D5W/5 mM Succinate and Hiltonol (pH of peptide solutions) | further results
28 | H-LLTDRNTSGTTFTLLGVSDYPELQVPIPQAGLG-OH [CS7408] |  | 6.31 | 6.75 | solubility [1]: > 2000 µg/mL; solubility [1, 5]: > 2000 µg/mL
29 | H-LPVFIGNIAVNHAPVSLRPGLGLPPGAPPGTVP-OH [CS7438] |  | 6.78 | 6.96 | 
30 | H-LPVFIGNIAVNHAPVSLRPGLGLPPGAPPLVVP-OH [CS6730] | > 2000 |  |  | 
31 | H-LRVFIGNIAVNHAPVSLRPGLGLPPGAPPGTVP-OH [CS7412] |  | 6.61 | 6.96 | solubility [1]: > 2000 µg/mL
32 | H-LSVPFTCGVNFGDSIEDLEI-OH [CS7428] | < 2000 |  |  | 
33 | H-LTDLPGRIRVAPQQNDLDSPQQISISNAE-OH [CS6709] |  |  |  | solubility [1, 7]: < 50000 µg/mL; Dissolution directly in D5W without using DMSO [2]: could be dissolved
34 | H-PIERVKKNLLKKEYNVSDDSMKLGGNNTSEKAD-OH [CS6721] | > 2000 |  |  | 
35 | H-PIQVFYTKQPQNDYLHVALVSVFQIHQEAPSSQ-OH [CS6729] | > 2000 |  |  | 
36 | H-PLMQTELHQLVPEADPEEMA-OH [CS7430] |  | 6.23 | 6.37 | 
37 | H-PPYPYSSPSLVLPTEPHTPKSLQQPGLPS-OH [CS6715] | > 2000 |  |  | 
38 | H-PQLAGGGGSGAPGEHPLLPGGAPLPAGLF-OH [CS6716] | > 2000 |  |  | 
39 | H-RGLHSQGLGRGRIAMAQTAGVLRSLEQEE-OH [CS6711] | > 2000 |  |  | 
40 | H-SGQPAPEETVLFLGLLHGLLLILRRLRGG-OH [CS6937] |  | 6.51 | 6.76 | solubility [1]: > 2000 µg/mL
41 | H-SHVEKAHITAESAQRQGPNGGGEQSANEF-OH [CS6708] | > 2000 |  |  | 
42 | H-SKLPYPVAKSGKRALARGPAPTEKTPHSGAQLG-OH [CS6719] | > 2000 |  |  | 
43 | H-SKRGVGAKTLLLPDPFLFWPCLEGTRRSL-OH [CS6934] |  | 6.57 | 6.79 | Heterodimer formation (mass spectrometry) [3]: can form a heterodimer
44 | H-SPTEPSTKLPGFDSCGNTEIAERKIKRIYGGFK-OH [CS6720] | > 2000 |  |  | Dissolution directly in D5W without using DMSO [2]: could be dissolved
45 | H-SYDSVIRELLQKPNVRVVVL-OH [CS7425] | > 2000 | 6.44 | 6.65 | solubility [1, 5]: < 2000 µg/mL; solubility [1, 7]: < 50000 µg/mL
46 | H-SYKKLPLLIFPSHRRAPLLSATGDRGFSV-OH [CS6936] |  |  |  | solubility [1, 6]: > 2000 µg/mL
47 | H-VAGLAASGLHGSAWLVPGEQPVSGPHHGKQ-OH [CS6931] |  | 6.42 | 6.66 | 
48 | H-VEQGHVRVGPDVVTHPAFLV-OH [CS7427] |  | 6.34 | 6.52 | 
49 | H-VQLSIQDVIRRARLSTVPTAQRVALRSGWI-OH [CS7413] |  | 6.73 | 7.02 | 
50 | H-VSWGKKVQPIDSILADWNEDIEAFEMMEKD-OH [CS6942] | < 2000 |  |  | 
51 | H-WDGPPENDMLLKEICGSLIP-OH [CS7432] |  | 6.22 | 6.45 | 
52 | H-YLLPKTAVVLRCPALRVRKP-OH [CS7418] |  | 6.76 | 6.96 | 
53 | KGASLDAGWGSPRWTTTRMTSASAGRSTRA [CS7414] |  | 6.71 | 6.99 | Solubility in DMSO/D5W/Succinate [1]: Y
